Source: ChEMBL document CHEMBL4418493, “N-hydroxyformamide compounds and compositions comprising them for use as BMP1, TLL1 and/or TLL2 inhibitors” (2018)

Assays:
[1] = Drug metabolism in heparinized pooled human plasma at pH 7.5 assessed as formation of (3-ethoxy-5-(5-((((R)-2-((R)-1-(N-hydroxyformamido)propyl)heptanamido)methyl)carbamoyl) furan-2-yl)phenyl)phosphonic acid at 100 to 2000 ng/ml incubated up to 4 or 24 hrs by LC-MS/MS analysis; assay type: ADME, cell-free; conditions: pH 7.5, 24 h
[2] = Stability in pH 7.96 assessed as compound purity level at 1 mg/ml heated to 40 degC and measured at 200 hrs by LC/MS analsysis; assay type: physicochemical; conditions: buffer, read-out: Stability
[3] = Drug metabolism in heparinized pooled human plasma at pH 7.5 assessed as conversion to active compound at 100 to 2000 ng/ml incubated for 4 by LC-MS/MS analysis; assay type: ADME, cell-free
[4] = Drug metabolism in heparinized pooled human plasma at pH 7.5 assessed as formation of (S)-2-(2-ethoxy-4-(5-((((R)-2-((R)-1-(N-hydroxyformamido)propyl)heptanamido)methyl) carbamoyl)furan-2-yl)benzamido)succinic acid at 100 to 2000 ng/ml incubated up to 4 or 24 hrs by LC-MS/MS analysis; assay type: ADME, cell-free; conditions: pH 7.5, 24 h
[5] = Reduction in PICP levels in human cardiac fibroblasts incubated for 24 to 48 hrs by ELISA; assay type: functional
[6] = Reduction in mature collagen deposition levels in human cardiac fibroblasts incubated for 24 to 48 hrs by immunostaining based assay; assay type: functional
Tolloid-like protein 1 = Tolloid-like protein 1 (Homo sapiens, UniProt O43897, I156V/N221S/V284A); experiment: Inhibition of recombinant human TLL1 I156V/N221S/V284A mutant expressed in CHOE1A cells pre-incubated for 10 mins before promyostatin peptide substrate addition and measured after 60 mins by FRET based assay; assay type: cell-based
Tolloid-like protein 2 = biological target: T1, Tolloid-like protein 2 (Homo sapiens, UniProt Q9Y6L7); experiment: Inhibition of C-terminal Avi-6x-His epitope tagged and N-terminal human RAGE signal sequence tagged recombinant human TLL2 (26 to 1015 amino acids) expressed in CHOE1A cells incubated for 60 mins with promyostatin peptide substrate by FRET based assay; assay type: cell-based
T1 sequence (Q9Y6L7 whole entry): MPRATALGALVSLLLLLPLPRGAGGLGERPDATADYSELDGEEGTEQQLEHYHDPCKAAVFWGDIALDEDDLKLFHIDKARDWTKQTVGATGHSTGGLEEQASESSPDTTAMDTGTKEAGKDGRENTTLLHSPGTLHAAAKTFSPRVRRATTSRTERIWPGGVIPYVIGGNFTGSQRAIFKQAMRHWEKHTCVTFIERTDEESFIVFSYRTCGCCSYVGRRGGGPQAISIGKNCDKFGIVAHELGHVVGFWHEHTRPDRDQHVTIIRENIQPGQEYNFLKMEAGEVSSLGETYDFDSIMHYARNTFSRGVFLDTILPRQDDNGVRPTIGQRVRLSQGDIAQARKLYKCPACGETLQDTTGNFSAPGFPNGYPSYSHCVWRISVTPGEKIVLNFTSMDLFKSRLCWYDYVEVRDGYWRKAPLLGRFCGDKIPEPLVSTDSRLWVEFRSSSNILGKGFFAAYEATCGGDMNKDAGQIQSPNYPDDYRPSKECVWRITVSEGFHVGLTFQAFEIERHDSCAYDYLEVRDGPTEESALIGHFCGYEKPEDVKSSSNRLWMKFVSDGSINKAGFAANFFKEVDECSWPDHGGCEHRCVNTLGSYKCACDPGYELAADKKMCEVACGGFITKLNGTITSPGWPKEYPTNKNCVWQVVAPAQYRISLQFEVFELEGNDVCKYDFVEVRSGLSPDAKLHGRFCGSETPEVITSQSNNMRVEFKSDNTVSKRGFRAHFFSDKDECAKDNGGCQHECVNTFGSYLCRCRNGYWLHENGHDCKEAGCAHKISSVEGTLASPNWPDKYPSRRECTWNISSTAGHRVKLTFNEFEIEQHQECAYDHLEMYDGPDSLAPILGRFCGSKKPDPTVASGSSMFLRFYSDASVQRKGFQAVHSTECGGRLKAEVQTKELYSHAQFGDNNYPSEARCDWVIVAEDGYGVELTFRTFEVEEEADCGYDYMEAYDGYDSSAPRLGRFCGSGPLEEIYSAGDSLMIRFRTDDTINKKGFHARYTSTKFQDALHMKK

[7] = biological target: T2, Bone morphogenetic protein 1 (Homo sapiens, UniProt P13497); experiment: Inhibition of C-terminal FLAG-6x-His epitope tagged and N-terminal human RAGE signal sequence tagged human BMP1 (121 to 721 amino acids) expressed in CHO-E1a cells pre-incubated for 10 mins before promyostatin peptide substrate addition and measured after 60 mins using 0.5 nM BMP1 by FRET based assay; assay type: cell-based
T2 sequence (P13497 whole entry): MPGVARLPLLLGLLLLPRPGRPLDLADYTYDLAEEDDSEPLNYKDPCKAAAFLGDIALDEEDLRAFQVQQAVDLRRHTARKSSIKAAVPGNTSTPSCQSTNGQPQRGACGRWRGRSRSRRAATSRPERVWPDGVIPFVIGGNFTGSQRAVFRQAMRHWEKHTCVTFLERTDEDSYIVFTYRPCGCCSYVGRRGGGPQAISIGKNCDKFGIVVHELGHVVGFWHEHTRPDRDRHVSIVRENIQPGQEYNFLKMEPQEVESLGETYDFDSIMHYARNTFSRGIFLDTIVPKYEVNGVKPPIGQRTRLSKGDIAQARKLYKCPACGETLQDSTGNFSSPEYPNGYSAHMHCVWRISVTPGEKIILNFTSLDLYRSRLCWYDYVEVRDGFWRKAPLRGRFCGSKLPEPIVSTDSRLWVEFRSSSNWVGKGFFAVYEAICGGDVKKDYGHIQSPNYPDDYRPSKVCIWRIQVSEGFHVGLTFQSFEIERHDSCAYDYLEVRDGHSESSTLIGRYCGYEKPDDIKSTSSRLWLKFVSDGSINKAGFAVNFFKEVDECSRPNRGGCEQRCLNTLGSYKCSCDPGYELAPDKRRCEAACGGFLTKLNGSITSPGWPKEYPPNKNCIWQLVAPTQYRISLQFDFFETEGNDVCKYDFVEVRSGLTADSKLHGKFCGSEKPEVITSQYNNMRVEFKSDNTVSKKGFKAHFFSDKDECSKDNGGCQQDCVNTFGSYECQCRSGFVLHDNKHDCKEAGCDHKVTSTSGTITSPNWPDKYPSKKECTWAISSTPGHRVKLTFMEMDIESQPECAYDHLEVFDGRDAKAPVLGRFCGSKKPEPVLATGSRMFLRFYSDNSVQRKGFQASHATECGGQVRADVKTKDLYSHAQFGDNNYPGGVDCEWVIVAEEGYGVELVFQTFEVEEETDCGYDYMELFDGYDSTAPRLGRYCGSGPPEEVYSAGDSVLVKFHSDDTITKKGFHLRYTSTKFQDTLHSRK

[8] = Drug metabolism in heparinized pooled human plasma at pH 7.5 assessed as formation of (S)-2-(2-(carboxymethoxy)-4-(5-((((R)-2-((R)-1-(N-hydroxyformamido)propyl)heptanamido)methyl)carbamoyl)furan-2-yl)benzamido)succinic acid at 100 to 2000 ng/ml incubated up to 4 or 24 hrs by LC-MS/MS analysis; assay type: ADME, cell-free; conditions: pH 7.5, 24 h

Tolloid-like protein 1, sequence (O43897 148-1013 I156V/N221S/V284A limits assumed): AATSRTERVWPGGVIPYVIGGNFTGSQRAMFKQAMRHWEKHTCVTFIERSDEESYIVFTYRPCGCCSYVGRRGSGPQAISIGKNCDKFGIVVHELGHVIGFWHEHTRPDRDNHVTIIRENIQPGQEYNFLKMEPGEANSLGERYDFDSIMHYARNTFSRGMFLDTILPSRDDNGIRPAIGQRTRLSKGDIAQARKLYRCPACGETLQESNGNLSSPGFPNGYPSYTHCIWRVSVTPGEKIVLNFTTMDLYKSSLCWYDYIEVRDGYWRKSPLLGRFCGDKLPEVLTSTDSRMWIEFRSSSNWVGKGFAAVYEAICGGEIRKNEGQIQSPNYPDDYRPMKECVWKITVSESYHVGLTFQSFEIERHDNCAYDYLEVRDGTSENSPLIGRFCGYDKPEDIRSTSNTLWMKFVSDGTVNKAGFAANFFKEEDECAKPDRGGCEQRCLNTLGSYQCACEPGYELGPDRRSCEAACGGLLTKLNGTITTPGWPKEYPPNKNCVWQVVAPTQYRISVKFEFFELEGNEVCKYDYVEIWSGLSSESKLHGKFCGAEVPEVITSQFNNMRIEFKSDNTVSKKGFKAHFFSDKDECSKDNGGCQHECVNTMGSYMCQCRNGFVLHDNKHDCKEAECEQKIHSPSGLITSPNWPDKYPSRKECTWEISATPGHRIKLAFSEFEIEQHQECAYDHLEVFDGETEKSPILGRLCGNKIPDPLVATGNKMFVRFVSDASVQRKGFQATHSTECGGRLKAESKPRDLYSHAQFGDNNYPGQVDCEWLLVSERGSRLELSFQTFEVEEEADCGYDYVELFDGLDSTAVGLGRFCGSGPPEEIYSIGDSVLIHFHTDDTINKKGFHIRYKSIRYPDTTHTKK

SMILES | Drug metabolism [1] | remaining at 200 h, 1 mg/ml [2] [%] | Drug metabolism [3] [%] | Drug metabolism [4] | IC50 [5] [nM] | IC50 [6] [nM] | IC50 (Tolloid-like protein 1) [nM] | IC50 (Tolloid-like protein 2) [nM] | IC50 [7] [nM] | Drug metabolism [8]
CCCCC[C@@H](C(=O)NCNC(=O)c1ccc(-c2cc(OCC)cc(P(=O)(O)O)c2)o1)[C@@H](CC)N(C=O)OCOC(=O)C(C)(C)C | Metabolite_Detected | < 80 | > 10 | – | – | – | – | – | – | –
CCCCC[C@@H](C(=O)NCNC(=O)c1ccc(-c2ccc(C(=O)N[C@@H](CC(=O)O)C(=O)O)c(OCC)c2)o1)[C@@H](CC)N(C=O)OC(=O)C(C)(C)C | – | < 80 | > 10 | Metabolite_Detected | < 3980 | < 1000 | – | – | – | –
CCCCC[C@@H](C(=O)NCNC(=O)c1ccc(-c2cc(OCC)cc(P(=O)(O)Oc3ccccc3)c2)o1)[C@@H](CC)N(O)C=O | – | – | – | – | < 398 | – | < 251 | < 398 | < 316 | –
CCCCC[C@@H](C(=O)NCNC(=O)c1ccc(-c2cc(OCC)cc(P(=O)(O)O)c2)o1)[C@@H](CC)N(C=O)OC(=O)Cc1ccccc1 | Metabolite_Detected | < 80 | > 10 | – | – | – | – | – | – | –
CCCCC[C@@H](C(=O)NCNC(=O)c1ccc(-c2ccc(C(=O)N[C@@H](CC(=O)OC(C)(C)C)C(=O)OC(C)(C)C)c(OCC)c2)o1)[C@@H](CC)N(O)C=O | – | – | – | – | 398 to 3980 | < 1000 | 251 to 398 | 398 to 794 | 126 to 316 | –
CCCCC[C@@H](C(=O)NCNC(=O)c1ccc(-c2ccc(C(=O)N[C@@H](CC(=O)O)C(=O)O)c(OCC(=O)O)c2)o1)[C@@H](CC)N(C=O)OC(=O)OC(C)(C)C | – | < 80 | > 10 | – | < 3980 | – | – | – | – | Metabolite_Detected
CCCCC[C@@H](C(=O)NCNC(=O)c1ccc(-c2ccc(C(=O)OCCCC)cc2)o1)[C@@H](CC)N(O)C=O | – | – | – | – | 398 to 3980 | – | 251 to 398 | 398 to 794 | 126 to 316 | –
CCCCC[C@@H](C(=O)NCNC(=O)c1ccc(-c2cc(OCC)cc(P(=O)(O)O)c2)o1)[C@@H](CC)N(C=O)OC(=O)c1ccccc1 | Metabolite_Detected | < 80 | > 10 | – | – | – | – | – | – | –
CCCCC[C@@H](C(=O)NCNC(=O)c1ccc(-c2cc(OCC)cc(P(=O)(O)O)c2)o1)[C@@H](CC)N(C=O)OCc1oc(=O)oc1C | Metabolite_Detected | < 80 | > 10 | – | < 3980 | – | – | – | – | –
CCCCC[C@@H](C(=O)NCNC(=O)c1ccc(-c2cc(OCC)cc(P(=O)(O)OCOC(=O)OC(C)C)c2)o1)[C@@H](CC)N(O)C=O | – | – | – | – | < 398 | – | < 251 | < 398 | < 316 | –
CCCCC[C@@H](C(=O)NCNC(=O)c1ccc(-c2ccc(C(=O)N[C@@H](CC(=O)O)C(=O)O)c(OCC(=O)O)c2)o1)[C@@H](CC)N(C=O)OC(=O)c1ccccc1C | – | < 80 | > 10 | – | – | – | – | – | – | Metabolite_Detected
